Laboratory results taken from patent US6281214A, “Biphenyl derivatives” (Eisai Co., Ltd, priority 1994, dated 2001).

Tests used:
[1] = background, cited from earlier work; for extrapyramidal syndrome as adverse reaction: D2 receptor antagonists
[2] = target: T1, dopamine D2 receptor (Rattus norvegicus, UniProt P61169); experiment: dopamine D2 receptor binding test ([3H] Spiperone Binding Test); parameters: species or system SD rats; details: 1 nM [3H] Spiperone, rat corpus striatum, room temperature, 60 minutes; read-out: Ki value, dopamine D2 receptor
T1 construct: the receptor fraction prepared from the corpus striatum was molten and suspended; from tissue; host or cells: corpus striatum of SD rats (membrane fraction)
T1 sequence (P61169 whole entry): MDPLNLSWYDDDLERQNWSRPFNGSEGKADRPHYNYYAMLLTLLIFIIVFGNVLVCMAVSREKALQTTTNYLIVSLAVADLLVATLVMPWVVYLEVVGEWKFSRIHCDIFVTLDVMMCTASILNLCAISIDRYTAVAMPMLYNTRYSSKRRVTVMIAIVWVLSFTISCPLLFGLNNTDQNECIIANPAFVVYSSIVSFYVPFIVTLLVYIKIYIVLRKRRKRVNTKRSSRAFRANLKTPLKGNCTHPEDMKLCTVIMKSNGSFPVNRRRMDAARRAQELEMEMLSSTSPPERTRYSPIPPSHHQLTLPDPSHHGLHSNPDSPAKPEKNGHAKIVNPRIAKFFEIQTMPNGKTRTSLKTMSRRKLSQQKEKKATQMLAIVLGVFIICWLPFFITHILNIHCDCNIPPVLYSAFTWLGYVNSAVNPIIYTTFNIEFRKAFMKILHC
How it was run: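 Rat (SD, 6–8 weeks) corpus striatum membranes in 50 mM Krebs-Tris pH 7.4 were incubated with 1 nM [3H]spiperone at room temperature for 60 minutes, with nonspecific binding defined by excess spiperone. IC50 came from probit analysis; Ki was derived using radioligand concentration and Scatchard Kd.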

[3] = target: T2, serotonin S2 receptor (Rattus norvegicus, UniProt P14842); experiment: serotonin S2 receptor binding test ([3H] Ketanserin Binding Test); parameters: species or system SD rats; details: 1 nM [3H] Ketanserin, rat cortex, 37° C., 15 minutes
T2 construct: The receptor fraction prepared from the cortex was molten and suspended; from tissue; host or cells: cerebral cortex of SD rats (membrane fraction)
T2 sequence (P14842 whole entry): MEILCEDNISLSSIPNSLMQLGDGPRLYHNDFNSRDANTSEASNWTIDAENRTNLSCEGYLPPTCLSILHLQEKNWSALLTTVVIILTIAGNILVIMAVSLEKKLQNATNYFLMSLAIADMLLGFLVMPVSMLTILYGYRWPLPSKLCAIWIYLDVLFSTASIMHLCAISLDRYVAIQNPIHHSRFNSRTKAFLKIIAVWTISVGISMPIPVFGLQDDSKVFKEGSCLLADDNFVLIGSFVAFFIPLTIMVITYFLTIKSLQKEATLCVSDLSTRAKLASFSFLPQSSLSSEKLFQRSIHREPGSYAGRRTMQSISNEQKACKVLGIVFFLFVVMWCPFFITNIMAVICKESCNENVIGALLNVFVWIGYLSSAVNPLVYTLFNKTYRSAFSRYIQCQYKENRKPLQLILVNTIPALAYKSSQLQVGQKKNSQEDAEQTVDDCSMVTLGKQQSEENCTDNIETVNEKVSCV
How it was run: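 Ki values came from probit IC50s corrected for radioligand concentration and Kd (Scatchard). Binding used 1 nM [3H]ketanserin with SD rat cortex membrane fractions, 15 min at 37 °C in Tris-HCl pH 7.4. Bound radioactivity was measured after GF/B filtration, with methysergide for nonspecific binding.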

[4] = target: adrenergic α1 receptor; experiment: adrenergic α1 receptor binding test ([3H] Prazosin Binding Test); parameters: species or system SD rats; details: 1 nM [3H] Prazosin, rat cortex, room temperature, 60 minutes
How it was run: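 Rat (SD, 6-8 weeks) cerebral cortex membranes in 50 mM Tris-HCl pH 7.4 incubated with 1 nM [3H]prazosin for 60 min at room temperature; nonspecific binding defined with phentolamine. IC50 by probit method, converted to Ki using radioligand concentration and Scatchard-derived Kd.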

| SMILES | extrapyramidal syndrome as adverse reaction [1] | blood-pressure drop as adverse reaction ([1]; owing to high α1 blocking activity) | QTC interval in electrocardiogram [1] | Ki [2] | Ki [3] | Ki [4] |
| --- | --- | --- | --- | --- | --- | --- |
| O=C(CCCN1CCC(O)(c2ccc(Cl)cc2)CC1)c1ccc(F)cc1 [haloperidol] | causing extrapyramidal syndrome | – | – | – | – | – |
| CCN(CC)CCNC(=O)c1cc(S(C)(=O)=O)ccc1OC [Tiapride] | causing extrapyramidal syndrome | – | – | – | – | – |
| Cc1nc2n(c(=O)c1CCN1CCC(c3noc4cc(F)ccc34)CC1)CCCC2 [Risperidone, risperidone] | – | blood-pressure drop occurs as an adverse reaction | lengthened to induce arrhythmia | – | – | – |
| CCCc1cc(N2CCN(CC)CC2)cc(-c2ccccc2F)c1OC [Example 84, 1-Ethyl-4-[3-(2-fluorophenyl)-4-methoxy-5-propyl]phenylpiperazine] | – | – | – | 44.6 nM | 66.2 nM | > 1000 nM |
| CCS(=O)(=O)c1cc(N2CCN(CCO)CC2)cc(-c2ccc(F)cc2)c1OC [Example 195] | – | – | – | 70.6 nM | 5.75 nM | > 1000 nM |
| CCC(OCc1ccccn1)c1cc(N2CCN(CC)CC2)cc(-c2ccccc2)c1OC (stereo not shown) [Example 115, 1-Ethyl-4-{3-phenyl-4-methoxy-5-[1-(2-pyridylmethoxy)propyl]}phenylpiperazine] | – | – | – | 81.4 nM | 212 nM | > 1000 nM |
| CCC(F)c1cc(N2CCN(C)CC2)cc(-c2ccccc2C)c1Cl (stereo not shown) [Example 25, 1-Methyl-4-[3-(2-tolyl)-4-chloro-5-(1-fluoropropyl)]phenylpiperazine] | – | – | – | 2.4 nM | 8.27 nM | > 1000 nM |
| CCCCS(=O)(=O)Nc1cc(N2CCN(CC)CC2)cc(-c2ccccc2C)c1Cl [Example 19, 1-Ethyl-4-[3-(2-tolyl)-4-chloro-5-butanesulfonylamino]phenylpiperazine] | – | – | – | 0.64 nM | 1.95 nM | 81.6 nM |
| CCCC(F)c1cc(N2CCN(C)CC2)cc(-c2ccccc2C)c1Cl (stereo not shown) [Example 53, 1-Methyl-4-[3-(2-tolyl)-4-chloro-5-(1-fluorobutyl)]phenylpiperazine] | – | – | – | 6.73 nM | 12.4 nM | > 1000 nM |
| CCCc1cc(N2CCN(CC)CC2)cc(-c2ccccc2OC)c1OC [Example 132] | – | – | – | 281 nM | 392 nM | > 1000 nM |
| CCN1CCN(c2ccc(OC(C)C)c(-c3ccccc3)c2)CC1 [Example 61, 1-Ethyl-4-(3-phenyl-4-isopropxy)phenylpiperazine] | – | – | – | > 1000 nM | > 1000 nM | > 1000 nM |
| CCC(F)c1cc(N2CCN(CC)CC2)cc(-c2ccccc2C#N)c1Cl (stereo not shown) [Example 21] | – | – | – | 1.85 nM | 14.4 nM | 418 nM |
| CCOCc1cc(N2CCN(CC)CC2)cc(-c2ccccc2C)c1Cl [Example 173, 1-Ethyl-4-[3-(2-tolyl)-4-chloro-5-ethoxymethyl]phenylpiperazine] | – | – | – | 19.2 nM | > 1000 nM | > 1000 nM |
| CCN1CCN(c2cc(-c3ccccc3)c(F)c(S(=O)(=O)CC)c2)CC1 [Example 149, 1-Ethyl-4-(3-phenyl-4-fluoro-5-ethanesulfonyl)phenylpiperazine] | – | – | – | 6.24 nM | 11.6 nM | 27.2 nM |
| CC[C@@H](F)c1cc(N2CCN(CCO)CC2)cc(-c2ccc(F)cc2C)c1Cl [Example 223, 1-(2-Hydroxyethyl)-4-{3-[2-(4-fluorotolyl)]-4-chloro-5-[1-(R)-fluoropropyl]}phenylpiperazine] | – | – | – | 6.61 nM | 1860 nM | 1510 nM |
